Values of other authors in patent publication US20040223971A1, “Composition and uses of galectin antagonists” (GlycoGenesys, Inc., priority 2003, published 2004).

Columns and labels:
[1] = test system: BT549 cells; conditions: BT549 cells without detectable galectin-3
[2] = test system: galectin-3 transfected BT549 cells

**Q.** With `O=c1c(-c2ccc(O)cc2)coc2cc(O)cc(O)c12` [genistein] as the compound, how does the apoptosis induction [1] read?
**A.** effectively induces apoptosis

**Q.** And the “cell cycle arrest / apoptosis” value [2]?
**A.** cell cycle arrest at the G(2)/M phase takes place without apoptosis induction
